Reference: publication PMC4851326, “Pharmacologic Comparison of Clinical Neutral Endopeptidase Inhibitors in a Rat Model of Acute Secretory Diarrhea” (The Journal of Pharmacology and Experimental Therapeutics, 2016)

Experiments:
Conditions in all cases: recombinant purified human enzyme; for prodrugs the active form was tested
NEP = target: T1, NEP (Homo sapiens, UniProt P08473); assay: Purified peptidase assay, NEP; assay type: biochemical
T1 construct: purchased R&D Systems (Minneapolis, MN)
Description: (§1) Purified recombinant human enzymes were purchased from R&D Systems (Minneapolis, MN). […] Each substrate was diluted to 100 μM in the assay buffer recommended for each enzyme by the supplier. […] To these, 5 μl of diluted enzyme was added, followed by 10 μl of the quenched peptide substrate. The plates were incubated at 37°C until at least 10% substrate turnover or 5 μM product had formed. Fluorescence was measured using a Tecan Safire II (Excitation 320 nm/Emission 420 nm). Each plate included a standard curve of reaction product and positive (no enzyme) and negative (dimethyl sulfoxide vehicle) controls. Dose-response data were plotted and inhibition values (IC50) determined by linear regression analysis using GraphPad Prism (GraphPad Software, La Jolla, CA).

ACE = target: T2, ACE (Homo sapiens, UniProt P12821); assay: Purified peptidase assay, ACE; assay type: biochemical
T2 construct: purchased R&D Systems (Minneapolis, MN)
T2 sequence (P12821 30-1306): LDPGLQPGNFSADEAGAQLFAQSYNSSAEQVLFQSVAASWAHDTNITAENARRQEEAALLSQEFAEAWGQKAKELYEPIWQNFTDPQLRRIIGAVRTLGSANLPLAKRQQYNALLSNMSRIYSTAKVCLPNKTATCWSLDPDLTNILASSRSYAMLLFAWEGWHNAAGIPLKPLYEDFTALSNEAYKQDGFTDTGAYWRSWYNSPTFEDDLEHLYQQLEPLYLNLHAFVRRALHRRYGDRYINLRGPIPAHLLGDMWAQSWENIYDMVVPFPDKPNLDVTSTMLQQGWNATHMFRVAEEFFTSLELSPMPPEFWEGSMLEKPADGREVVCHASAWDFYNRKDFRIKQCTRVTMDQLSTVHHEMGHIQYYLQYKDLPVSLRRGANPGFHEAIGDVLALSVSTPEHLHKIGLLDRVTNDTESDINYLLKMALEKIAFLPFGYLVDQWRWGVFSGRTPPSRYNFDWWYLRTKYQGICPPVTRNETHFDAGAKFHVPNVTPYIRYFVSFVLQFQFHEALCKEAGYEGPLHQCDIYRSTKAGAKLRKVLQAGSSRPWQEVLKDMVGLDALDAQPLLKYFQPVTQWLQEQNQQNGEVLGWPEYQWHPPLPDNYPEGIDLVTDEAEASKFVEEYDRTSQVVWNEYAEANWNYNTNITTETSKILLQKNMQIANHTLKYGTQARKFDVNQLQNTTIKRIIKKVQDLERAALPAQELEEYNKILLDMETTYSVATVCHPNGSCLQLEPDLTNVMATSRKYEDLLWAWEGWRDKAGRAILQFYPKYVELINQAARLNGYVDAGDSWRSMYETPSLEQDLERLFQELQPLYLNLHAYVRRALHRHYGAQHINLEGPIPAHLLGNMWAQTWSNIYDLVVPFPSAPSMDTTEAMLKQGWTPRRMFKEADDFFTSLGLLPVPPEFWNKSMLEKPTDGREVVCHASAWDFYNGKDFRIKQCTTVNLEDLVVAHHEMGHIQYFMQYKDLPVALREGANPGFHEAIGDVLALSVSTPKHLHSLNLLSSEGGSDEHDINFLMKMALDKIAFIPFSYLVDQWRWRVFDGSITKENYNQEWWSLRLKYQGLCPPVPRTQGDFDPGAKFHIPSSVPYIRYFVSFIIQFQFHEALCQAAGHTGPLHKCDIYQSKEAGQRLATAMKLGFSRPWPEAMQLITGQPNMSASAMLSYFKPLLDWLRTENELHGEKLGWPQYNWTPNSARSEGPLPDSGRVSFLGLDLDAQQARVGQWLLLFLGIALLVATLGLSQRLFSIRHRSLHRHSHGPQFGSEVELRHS
Description: as §1

ECE-1 = target: T3, ECE-1 (Homo sapiens, UniProt P42892); assay: biochemical
T3 construct: purchased R&D Systems (Minneapolis, MN)
T3 sequence (P42892 1-770): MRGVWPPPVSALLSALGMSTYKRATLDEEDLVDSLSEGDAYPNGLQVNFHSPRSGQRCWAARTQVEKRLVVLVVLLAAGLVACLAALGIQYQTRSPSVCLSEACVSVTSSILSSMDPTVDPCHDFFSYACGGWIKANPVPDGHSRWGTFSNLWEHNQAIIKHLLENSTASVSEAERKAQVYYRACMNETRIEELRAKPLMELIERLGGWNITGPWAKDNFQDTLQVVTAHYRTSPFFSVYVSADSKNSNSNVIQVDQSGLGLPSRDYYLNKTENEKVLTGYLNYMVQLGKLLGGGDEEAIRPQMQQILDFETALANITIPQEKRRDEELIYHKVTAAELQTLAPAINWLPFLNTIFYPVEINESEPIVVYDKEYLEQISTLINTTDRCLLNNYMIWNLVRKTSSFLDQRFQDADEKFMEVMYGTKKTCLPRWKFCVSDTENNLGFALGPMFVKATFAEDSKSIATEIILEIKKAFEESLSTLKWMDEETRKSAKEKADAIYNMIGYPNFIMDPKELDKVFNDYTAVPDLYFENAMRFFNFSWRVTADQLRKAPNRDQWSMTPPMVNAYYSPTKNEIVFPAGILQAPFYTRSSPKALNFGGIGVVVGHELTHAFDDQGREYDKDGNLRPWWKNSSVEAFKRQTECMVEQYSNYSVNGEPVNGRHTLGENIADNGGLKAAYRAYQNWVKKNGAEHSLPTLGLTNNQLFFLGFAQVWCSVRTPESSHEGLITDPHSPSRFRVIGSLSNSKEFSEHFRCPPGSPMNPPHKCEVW
Description: as §1

ECE-2 = target: T4, ECE-2 (Homo sapiens, UniProt P0DPD6); assay: Purified peptidase assay, ECE-2; assay type: biochemical
T4 construct: purchased R&D Systems (Minneapolis, MN)
T4 sequence (P0DPD6 1-811): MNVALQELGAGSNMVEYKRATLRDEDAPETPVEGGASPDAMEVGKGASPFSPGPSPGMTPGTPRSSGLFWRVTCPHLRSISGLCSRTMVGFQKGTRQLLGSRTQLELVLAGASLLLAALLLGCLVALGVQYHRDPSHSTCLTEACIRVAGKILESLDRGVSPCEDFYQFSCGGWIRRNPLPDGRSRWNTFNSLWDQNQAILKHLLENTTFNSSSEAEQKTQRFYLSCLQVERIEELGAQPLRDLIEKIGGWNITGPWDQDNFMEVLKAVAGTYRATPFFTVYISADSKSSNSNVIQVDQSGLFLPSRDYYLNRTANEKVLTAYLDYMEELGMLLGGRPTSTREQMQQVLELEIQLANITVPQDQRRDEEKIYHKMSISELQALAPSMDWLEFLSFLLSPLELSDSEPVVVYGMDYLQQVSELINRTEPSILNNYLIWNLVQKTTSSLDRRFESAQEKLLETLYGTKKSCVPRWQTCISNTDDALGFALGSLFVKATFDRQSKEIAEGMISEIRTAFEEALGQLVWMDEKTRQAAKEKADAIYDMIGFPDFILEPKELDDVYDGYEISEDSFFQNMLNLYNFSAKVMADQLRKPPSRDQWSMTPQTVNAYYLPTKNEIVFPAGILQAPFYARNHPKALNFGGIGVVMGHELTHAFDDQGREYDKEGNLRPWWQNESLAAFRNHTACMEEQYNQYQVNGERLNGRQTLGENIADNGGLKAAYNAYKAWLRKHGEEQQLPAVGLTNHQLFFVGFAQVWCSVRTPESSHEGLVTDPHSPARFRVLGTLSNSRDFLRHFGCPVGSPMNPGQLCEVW
Description: as §1

IDE = target: T5, IDE (Homo sapiens, UniProt P14735); assay: Purified peptidase assay, IDE; assay type: biochemical
T5 construct: purchased R&D Systems (Minneapolis, MN)
T5 sequence (P14735 1-1019): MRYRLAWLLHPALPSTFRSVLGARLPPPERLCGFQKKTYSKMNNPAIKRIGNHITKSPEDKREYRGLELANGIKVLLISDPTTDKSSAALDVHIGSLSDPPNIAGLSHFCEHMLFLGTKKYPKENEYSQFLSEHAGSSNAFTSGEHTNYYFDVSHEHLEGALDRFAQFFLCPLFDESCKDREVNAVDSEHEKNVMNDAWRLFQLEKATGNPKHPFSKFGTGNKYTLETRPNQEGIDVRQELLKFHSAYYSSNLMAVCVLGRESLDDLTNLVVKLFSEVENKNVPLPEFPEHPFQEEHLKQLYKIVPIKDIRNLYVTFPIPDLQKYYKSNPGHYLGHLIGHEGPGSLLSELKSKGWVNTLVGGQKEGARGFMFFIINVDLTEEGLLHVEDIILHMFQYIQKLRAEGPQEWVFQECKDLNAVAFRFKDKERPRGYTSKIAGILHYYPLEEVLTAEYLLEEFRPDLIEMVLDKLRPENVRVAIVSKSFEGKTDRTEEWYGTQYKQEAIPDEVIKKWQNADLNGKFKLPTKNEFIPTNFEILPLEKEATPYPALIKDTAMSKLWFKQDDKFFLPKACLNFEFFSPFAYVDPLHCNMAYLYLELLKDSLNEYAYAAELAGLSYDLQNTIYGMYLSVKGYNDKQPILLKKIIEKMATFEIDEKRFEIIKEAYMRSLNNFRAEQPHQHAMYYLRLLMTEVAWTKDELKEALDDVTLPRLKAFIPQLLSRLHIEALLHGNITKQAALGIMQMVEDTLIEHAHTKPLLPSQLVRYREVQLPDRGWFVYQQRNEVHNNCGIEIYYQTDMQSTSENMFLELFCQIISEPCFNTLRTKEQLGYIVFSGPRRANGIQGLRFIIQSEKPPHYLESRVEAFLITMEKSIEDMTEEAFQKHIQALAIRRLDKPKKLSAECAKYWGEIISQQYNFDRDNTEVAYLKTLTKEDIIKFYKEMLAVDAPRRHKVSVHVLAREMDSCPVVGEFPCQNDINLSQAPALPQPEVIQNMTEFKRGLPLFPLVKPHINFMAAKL
Description: as §1

aminopeptidase N = target: T6, aminopeptidase N (Homo sapiens, UniProt P15144); assay: Purified peptidase assay, APN; assay type: biochemical
T6 construct: purchased R&D Systems (Minneapolis, MN)
T6 sequence (P15144 whole entry): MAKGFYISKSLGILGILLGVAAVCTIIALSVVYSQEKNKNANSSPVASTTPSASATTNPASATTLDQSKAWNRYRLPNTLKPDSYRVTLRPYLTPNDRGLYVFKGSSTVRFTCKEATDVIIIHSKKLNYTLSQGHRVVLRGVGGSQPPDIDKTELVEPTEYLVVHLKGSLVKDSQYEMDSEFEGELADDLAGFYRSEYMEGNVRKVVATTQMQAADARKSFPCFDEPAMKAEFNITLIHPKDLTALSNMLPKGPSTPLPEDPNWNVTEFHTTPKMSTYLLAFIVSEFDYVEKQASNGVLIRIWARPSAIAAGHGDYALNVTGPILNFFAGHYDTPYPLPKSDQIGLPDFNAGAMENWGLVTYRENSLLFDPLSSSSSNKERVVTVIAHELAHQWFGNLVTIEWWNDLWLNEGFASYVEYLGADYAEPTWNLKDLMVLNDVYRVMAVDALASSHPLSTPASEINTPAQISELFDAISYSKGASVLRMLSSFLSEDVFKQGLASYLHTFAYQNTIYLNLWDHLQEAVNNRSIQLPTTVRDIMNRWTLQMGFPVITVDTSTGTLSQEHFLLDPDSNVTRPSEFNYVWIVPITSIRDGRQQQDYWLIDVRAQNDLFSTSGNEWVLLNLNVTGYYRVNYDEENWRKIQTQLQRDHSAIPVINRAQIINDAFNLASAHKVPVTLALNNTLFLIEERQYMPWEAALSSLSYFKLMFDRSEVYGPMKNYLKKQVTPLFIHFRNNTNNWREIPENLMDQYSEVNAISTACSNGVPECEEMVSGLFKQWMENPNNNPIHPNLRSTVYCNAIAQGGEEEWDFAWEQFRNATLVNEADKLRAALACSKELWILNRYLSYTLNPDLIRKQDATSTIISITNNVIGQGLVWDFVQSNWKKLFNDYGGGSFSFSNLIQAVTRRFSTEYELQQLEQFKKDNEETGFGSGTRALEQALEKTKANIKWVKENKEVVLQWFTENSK
Description: as §1

[1] = target: T7, puromycin-sensitive aminopeptidase (Homo sapiens, UniProt P55786); assay: Purified peptidase assay, PSA; assay type: biochemical
T7 construct: purchased R&D Systems (Minneapolis, MN)
T7 sequence (P55786 whole entry): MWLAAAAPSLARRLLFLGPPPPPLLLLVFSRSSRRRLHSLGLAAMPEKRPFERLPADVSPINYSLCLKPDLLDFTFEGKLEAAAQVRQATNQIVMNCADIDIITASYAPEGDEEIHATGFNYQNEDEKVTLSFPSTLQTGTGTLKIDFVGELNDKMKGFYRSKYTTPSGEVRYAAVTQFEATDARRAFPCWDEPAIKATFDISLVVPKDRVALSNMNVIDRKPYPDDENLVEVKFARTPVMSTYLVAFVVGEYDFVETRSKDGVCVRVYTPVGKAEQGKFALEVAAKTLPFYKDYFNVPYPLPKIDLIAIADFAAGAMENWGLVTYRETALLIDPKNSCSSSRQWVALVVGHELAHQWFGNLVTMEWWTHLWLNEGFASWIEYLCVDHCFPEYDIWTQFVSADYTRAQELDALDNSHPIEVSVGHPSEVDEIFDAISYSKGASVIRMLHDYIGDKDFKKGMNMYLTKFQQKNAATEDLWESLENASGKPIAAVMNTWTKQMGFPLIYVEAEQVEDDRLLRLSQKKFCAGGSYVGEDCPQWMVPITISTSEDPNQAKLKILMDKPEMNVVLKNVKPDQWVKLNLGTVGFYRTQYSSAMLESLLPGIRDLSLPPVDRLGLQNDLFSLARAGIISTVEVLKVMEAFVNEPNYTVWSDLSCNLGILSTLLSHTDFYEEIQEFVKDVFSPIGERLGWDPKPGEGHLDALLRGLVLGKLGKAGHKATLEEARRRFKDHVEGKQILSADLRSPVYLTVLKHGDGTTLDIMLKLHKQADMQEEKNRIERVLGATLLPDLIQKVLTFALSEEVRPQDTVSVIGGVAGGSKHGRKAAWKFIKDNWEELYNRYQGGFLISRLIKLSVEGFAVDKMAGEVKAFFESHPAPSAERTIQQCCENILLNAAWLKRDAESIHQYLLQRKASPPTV
Description: as §1

T1 sequence (P08473 whole entry): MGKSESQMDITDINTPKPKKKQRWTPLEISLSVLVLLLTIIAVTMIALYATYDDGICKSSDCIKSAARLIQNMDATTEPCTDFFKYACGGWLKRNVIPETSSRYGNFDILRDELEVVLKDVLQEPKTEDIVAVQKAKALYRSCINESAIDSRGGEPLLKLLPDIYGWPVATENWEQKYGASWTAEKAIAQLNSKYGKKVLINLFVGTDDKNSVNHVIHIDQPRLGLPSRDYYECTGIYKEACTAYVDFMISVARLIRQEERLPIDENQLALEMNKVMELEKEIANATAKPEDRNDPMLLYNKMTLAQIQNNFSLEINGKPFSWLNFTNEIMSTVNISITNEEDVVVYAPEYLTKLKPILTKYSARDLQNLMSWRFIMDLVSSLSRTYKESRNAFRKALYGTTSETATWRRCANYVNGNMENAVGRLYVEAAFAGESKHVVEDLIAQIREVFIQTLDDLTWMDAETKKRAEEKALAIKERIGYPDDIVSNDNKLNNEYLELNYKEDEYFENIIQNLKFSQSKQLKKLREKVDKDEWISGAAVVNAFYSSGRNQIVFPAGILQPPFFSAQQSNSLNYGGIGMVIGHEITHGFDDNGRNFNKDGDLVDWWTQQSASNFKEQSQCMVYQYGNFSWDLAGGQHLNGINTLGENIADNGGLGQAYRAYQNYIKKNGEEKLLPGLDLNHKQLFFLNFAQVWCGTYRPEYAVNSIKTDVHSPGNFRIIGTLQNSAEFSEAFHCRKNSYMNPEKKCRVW

With `CC1(C)CCC[C@H](NC(=O)[C@@H](S)Cc2ccccc2)C(=O)N1CC(=O)O` [Gemopatrilat] the IC50 (NEP) was 0.06 µM, the IC50 (ACE) was 0.23 µM and the IC50 (ECE-1) was 12 µM. For the same compound, the IC50 (ECE-2) was 77 µM, the IC50 (IDE) was > 100 µM and the IC50 (aminopeptidase N) was 18 µM. It also gave an IC50 [1] of 18 µM.
Work on `O=C(N[C@H]1CCS[C@H]2CCC[C@@H](C(=O)O)N2C1=O)[C@@H](S)Cc1ccccc1` [Omapatrilat] yielded an IC50 (NEP) of 0.04 µM, an IC50 (ACE) of 0.19 µM and an IC50 (ECE-1) of 21 µM. For the same compound, the IC50 (ECE-2) was 86 µM, the IC50 (IDE) was > 100 µM and the IC50 (aminopeptidase N) was 28 µM. For the same compound, the IC50 [1] was > 100 µM.
